Laboratory results as given in US11268068B2, “In vitro model of metastatic cancer” (THE JOHNS HOPKINS UNIVERSITY, priority 2014, dated 2022).

Columns and labels:
[1] = test system: parental and rs-monolayer population of Huh7 cells; assay: Chemosensitivity assay (cell viability after 3-BrPA); assay type: cell-based, human; details: Huh7 (luc-Huh7) cells, rs-monolayer vs parental monolayer, FIG. 7B
Experimental: Assessment of the chemosensitivity of parental cell population and rs-monolayer population was performed using the antiglycolytic agent, 3-bromopyruvate (3-BrPA). In brief, cells were plated in 96-well plates the day before treatment. Analysis of cell viability following the addition of 3-BrPA was performed as described other cell lines^22.

[2] = test system: human cancer cells in 3D-culture; details: Gomes et al., Oncogene 2015; cited from earlier work

| SMILES | IC50 of rs-monolayer cells compared to the parental population [1] | IC50 of rs-monolayer cells compared to the parental population ([1]; listed as 3-bromopyruvate) | Sensitivity of 3D-culture compared with corresponding monolayer culture [2] |
| --- | --- | --- | --- |
| O=C(O)C(=O)CBr [3-BrPA, 3-bromopyruvate] | An increase in IC50 of rs-monolayer cells compared to the parental population | rs-monolayer cells require a higher concentration of drug |  |
| COc1cccc2c1C(=O)c1c(O)c3c(c(O)c1C2=O)C[C@@](O)(C(=O)CO)C[C@@H]3O[C@H]1C[C@H](N)[C@H](O)[C@H](C)O1 [doxorubicin] |  |  | more sensitive |
